In US4550186A, “Binuclear copper (II) carboxylates formed from amine-carboxyboranes” (Duke University, priority 1983, dated 1985):

How the values were obtained:
dihydrofolate reductase = biological target: T1, dihydrofolate reductase (Mus musculus, UniProt P00375); experiment: In vivo dihydrofolate reductase activity
T1 sequence (P00375 1-187): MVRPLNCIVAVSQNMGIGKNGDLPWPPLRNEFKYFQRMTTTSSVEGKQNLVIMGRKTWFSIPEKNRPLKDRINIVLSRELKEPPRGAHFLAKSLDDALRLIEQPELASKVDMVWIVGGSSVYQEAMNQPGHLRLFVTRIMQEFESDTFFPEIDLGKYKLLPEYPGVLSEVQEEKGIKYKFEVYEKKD
Description: (§1) CF1 male mice (~30 g) were implanted with 2×10^6 Ehrlich ascites tumor cells, intraperitoneally on Day 0. Compound I was suspended by homogenation in 0.05% polysorbate.80-water and administered intraperitoneally at 10 and 20 mg/kg for 9 days to determine its effectiveness for inhibition of tumor growth. Mice were sacrificed on Day 10, and the ascites fluid was collected from the peritoneal cavity. The volume and ascrit (packed cell volume) were determined for each animal and the percent inhibition of tumor growth was calculated. For the metabolic studies, mice were treated on Days 8 and 9 with 10 mg/kg of Compound I, intraperitoneally. […]
(§2) Carbamyl phosphate synthetase activity was determined using the reaction medium of Kalman et al [Am. […] Citrulline formed from ornithine was measured at 490 nm by the method of Archibald [J. Biol. Chem., 156, 121 (1944)]. […] The ^14 CO2 generated in 15 min was trapped in 1M KOH and counted. Thymidylate synthetase activity was determined using a post-mitochondrial supernatant (9000 g×10 min) and 5 μCi of 5-^3 H-deoxyuridine monophosphate (14 Ci/mmol) according to the method of Kampf et al [ J. Med. Chem., 19, 903 (1976)]. ^14 C-Formate incorporation into purines was determined by the method of Spassova et al [Biochem. Pharmacol., 25, 923 (1976)] using 0.5 μCi of ^14 C-formic acid (52.0 mCi/mmol). […] The Rf value for xanthine monophosphate was scraped and counted. […]

Holtzman male rats = experiment: 3H-Cholesterol distribution in rats; format: in vivo, rat; settings: for Orally administered 3H-Cholesterol: 14 days 10 mg/Kg/Day, Treated
Description: Holtzman male rats (~350 g) were administered the test agent for 14 days orally. On day 13, 10 μCi of ^3 H-cholesterol (40.7 mCi/mmol) was administered intraperitoneally in mice and orally in rats, and feces were collected for the next 24 hr. Twenty-four hours after cholesterol administration, the major organs were excised and samples of blood, chyme and urine were obtained. Homogenates (10%) were prepared of the tissues which were combusted and counted. Some tissue samples were plated on Whatman #1 filter paper, dried and digested for 24 hr in base at 40° C. and counted. Results were expressed as dpm/mg of wet tissue and dpm/per total organ.

[1] = biological target: T2, ribosomal ribonucleic acid polymerase (Mus musculus, UniProt O35134+P70700); experiment: In vivo ribosomal ribonucleic acid polymerase activity
T2 construct: enzymes isolated from nuclei; endogenous in cells; host or cells: Ehrlich ascites tumor cell nuclei, ammonium sulfate fraction
T2 sequence (P52432 whole entry): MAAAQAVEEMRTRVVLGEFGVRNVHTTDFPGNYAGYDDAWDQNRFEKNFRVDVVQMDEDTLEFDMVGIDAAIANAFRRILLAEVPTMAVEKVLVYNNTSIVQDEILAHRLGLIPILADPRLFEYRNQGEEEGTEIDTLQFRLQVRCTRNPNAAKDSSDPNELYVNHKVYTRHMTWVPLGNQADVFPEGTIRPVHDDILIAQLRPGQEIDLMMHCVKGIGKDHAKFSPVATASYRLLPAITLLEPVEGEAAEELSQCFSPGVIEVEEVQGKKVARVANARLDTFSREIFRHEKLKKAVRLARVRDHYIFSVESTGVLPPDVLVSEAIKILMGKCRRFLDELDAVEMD
T2 sequence (Q791N7 whole entry, further chain): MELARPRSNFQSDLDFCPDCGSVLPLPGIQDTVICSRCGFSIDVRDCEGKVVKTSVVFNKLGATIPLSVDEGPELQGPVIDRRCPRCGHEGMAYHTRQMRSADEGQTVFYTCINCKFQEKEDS
T2 sequence (P97304 whole entry, further chain): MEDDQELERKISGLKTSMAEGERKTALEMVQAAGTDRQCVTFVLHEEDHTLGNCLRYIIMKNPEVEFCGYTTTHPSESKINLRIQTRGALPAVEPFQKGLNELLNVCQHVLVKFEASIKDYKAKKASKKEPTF
T2 sequence (Q78WZ7 whole entry, further chain): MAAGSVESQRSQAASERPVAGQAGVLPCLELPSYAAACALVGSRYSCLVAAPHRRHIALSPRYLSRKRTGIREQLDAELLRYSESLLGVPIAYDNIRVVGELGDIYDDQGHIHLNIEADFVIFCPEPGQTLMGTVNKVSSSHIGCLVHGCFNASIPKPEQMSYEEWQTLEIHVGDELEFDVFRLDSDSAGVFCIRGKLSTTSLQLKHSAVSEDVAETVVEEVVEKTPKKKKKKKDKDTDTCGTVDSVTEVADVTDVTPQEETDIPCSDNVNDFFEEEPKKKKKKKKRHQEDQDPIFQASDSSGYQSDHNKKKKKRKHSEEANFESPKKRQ
T2 sequence (P70700 whole entry): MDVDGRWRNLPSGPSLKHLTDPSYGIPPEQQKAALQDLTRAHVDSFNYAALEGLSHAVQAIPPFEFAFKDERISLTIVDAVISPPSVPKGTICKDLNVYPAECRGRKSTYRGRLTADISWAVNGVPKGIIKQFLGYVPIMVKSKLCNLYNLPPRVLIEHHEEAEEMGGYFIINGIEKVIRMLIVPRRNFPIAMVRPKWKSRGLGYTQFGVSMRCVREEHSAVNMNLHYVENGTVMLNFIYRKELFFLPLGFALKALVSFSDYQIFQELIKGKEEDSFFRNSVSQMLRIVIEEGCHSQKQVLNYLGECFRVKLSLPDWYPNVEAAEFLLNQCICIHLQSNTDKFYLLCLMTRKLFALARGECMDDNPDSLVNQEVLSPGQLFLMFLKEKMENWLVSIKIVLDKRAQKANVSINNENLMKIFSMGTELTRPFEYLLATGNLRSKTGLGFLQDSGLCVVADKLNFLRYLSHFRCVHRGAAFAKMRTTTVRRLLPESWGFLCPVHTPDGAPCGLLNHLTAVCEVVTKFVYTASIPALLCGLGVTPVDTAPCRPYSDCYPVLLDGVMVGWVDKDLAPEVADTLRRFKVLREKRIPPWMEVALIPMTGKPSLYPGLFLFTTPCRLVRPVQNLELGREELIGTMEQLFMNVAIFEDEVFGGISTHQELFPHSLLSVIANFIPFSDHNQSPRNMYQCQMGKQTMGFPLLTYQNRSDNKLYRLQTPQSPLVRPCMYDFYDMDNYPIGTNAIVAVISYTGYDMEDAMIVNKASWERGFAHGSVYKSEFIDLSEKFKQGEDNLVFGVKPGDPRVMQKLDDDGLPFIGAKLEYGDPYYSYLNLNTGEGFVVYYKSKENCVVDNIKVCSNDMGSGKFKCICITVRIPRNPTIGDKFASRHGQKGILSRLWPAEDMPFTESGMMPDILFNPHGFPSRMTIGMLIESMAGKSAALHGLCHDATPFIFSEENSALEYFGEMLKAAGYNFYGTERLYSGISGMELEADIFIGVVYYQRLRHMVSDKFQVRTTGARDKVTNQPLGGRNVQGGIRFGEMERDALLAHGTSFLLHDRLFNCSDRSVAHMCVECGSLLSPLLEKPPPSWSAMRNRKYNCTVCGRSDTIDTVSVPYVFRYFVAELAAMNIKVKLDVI
T2 sequence (O35134 whole entry): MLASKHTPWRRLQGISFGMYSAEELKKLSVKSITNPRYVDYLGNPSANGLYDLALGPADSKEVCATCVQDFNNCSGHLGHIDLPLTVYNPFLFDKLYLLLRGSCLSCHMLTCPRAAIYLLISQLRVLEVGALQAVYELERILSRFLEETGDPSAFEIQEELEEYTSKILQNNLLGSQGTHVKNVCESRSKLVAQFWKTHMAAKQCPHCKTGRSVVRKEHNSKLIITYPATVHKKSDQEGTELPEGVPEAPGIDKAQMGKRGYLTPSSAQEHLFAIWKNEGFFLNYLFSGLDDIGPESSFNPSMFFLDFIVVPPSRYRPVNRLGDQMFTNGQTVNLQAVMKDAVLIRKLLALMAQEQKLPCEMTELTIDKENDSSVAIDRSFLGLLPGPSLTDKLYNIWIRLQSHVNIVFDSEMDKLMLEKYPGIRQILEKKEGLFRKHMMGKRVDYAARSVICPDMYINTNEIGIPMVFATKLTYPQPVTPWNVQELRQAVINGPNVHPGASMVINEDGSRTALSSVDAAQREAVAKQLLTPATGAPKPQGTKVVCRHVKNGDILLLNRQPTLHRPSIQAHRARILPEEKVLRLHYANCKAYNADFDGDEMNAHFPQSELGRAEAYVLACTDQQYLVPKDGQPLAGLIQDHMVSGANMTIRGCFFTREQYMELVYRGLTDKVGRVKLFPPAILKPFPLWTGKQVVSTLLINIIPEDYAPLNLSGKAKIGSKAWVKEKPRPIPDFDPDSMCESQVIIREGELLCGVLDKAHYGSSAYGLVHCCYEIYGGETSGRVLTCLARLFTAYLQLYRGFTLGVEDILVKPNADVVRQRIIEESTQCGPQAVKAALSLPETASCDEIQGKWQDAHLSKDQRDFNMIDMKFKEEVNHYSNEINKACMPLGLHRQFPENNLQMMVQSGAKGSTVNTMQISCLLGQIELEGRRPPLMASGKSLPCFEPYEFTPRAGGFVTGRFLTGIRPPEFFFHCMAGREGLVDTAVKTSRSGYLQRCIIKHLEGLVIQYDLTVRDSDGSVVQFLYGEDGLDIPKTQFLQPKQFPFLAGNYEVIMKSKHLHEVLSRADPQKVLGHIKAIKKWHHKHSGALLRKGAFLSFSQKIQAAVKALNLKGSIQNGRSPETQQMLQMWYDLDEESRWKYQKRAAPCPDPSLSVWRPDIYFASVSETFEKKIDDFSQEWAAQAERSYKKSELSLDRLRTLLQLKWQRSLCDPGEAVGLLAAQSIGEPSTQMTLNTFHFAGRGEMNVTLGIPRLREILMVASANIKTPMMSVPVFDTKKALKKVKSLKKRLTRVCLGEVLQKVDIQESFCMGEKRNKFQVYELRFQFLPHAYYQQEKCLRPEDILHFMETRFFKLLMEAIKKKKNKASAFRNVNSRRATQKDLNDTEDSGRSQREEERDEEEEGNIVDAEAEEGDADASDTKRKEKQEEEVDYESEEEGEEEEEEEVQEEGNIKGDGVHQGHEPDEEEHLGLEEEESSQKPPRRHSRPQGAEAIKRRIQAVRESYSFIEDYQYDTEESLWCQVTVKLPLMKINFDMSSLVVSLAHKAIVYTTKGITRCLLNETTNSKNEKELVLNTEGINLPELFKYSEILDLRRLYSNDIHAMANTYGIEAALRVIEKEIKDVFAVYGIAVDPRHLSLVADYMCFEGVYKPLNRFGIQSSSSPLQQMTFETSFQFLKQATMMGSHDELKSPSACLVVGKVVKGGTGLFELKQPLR
Description: CF1 male mice (~30 g) were implanted with 2×10^6 Ehrlich ascites tumor cells, intraperitoneally on Day 0. Compound I was suspended by homogenation in 0.05% polysorbate.80-water and administered intraperitoneally at 10 and 20 mg/kg for 9 days to determine its effectiveness for inhibition of tumor growth. Mice were sacrificed on Day 10, and the ascites fluid was collected from the peritoneal cavity. The volume and ascrit (packed cell volume) were determined for each animal and the percent inhibition of tumor growth was calculated. For the metabolic studies, mice were treated on Days 8 and 9 with 10 mg/kg of Compound I, intraperitoneally. The animal was sacrificed on Day 10 and the ascites fluid harvested. The in vitro metabolic studies were performed at […] final concentration of Compound I.
In vitro and in vivo nuclear deoxyribonucleic acid polymerase activity was determined on isolated Ehrlich ascites cell nuclei. The incubation was that described by Sawada et al [Can. Res., 34, 3341 (1974)] except that [methyl-^3 H] deoxythymidine triphosphate (82.4 Ci/mmol) was used. The acid insoluble nucleic acid was collected on GF/F filters and counted. Nuclear ribonucleic acid polymerase activities were determined on enzymes isolated from nuclei. […] The acid insoluble ribonucleic acid was collected on nitrocellulose filters and counted.

[2] = biological target: phosphoribosyl pyrophosphate amidotransferase (Mus musculus, UniProt Q8CIH9); experiment: In vivo phosphoribosyl pyrophosphate amidotransferase activity
Chain of phosphoribosyl pyrophosphate amidotransferase (Q8CIH9 12-517): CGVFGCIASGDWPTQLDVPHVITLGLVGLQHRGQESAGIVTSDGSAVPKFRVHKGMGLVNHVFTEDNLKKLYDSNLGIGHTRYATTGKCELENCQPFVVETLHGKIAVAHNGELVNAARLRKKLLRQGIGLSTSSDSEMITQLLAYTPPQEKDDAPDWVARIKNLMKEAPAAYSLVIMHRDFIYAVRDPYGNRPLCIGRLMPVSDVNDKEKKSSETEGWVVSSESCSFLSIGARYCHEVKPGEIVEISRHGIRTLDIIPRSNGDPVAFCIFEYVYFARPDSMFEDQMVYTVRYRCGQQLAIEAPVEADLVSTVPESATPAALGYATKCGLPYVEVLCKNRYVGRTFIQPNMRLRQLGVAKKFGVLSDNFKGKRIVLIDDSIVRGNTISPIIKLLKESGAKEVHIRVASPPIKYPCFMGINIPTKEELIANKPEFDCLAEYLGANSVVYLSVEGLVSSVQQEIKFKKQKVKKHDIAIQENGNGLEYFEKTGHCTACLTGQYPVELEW
Description: as §1, §2

[3] = 10 mg/kg/day I.P. on Days 8 and 9

Question: For “{Cu[(CH3)3 N.BH2 CO2 ]2.(CH3)3 N.BH2 COOH} [Compound I]”, which “Dihydrofolate reductase activity inhibited” value (dihydrofolate reductase) is on record?
Answer: 25%

Question: And the Dihydrofolate reductase activity (dihydrofolate reductase; [3])?
Answer: 75 ± 6 % Control

Question: And the “Orally administered 3H-Cholesterol” value (Holtzman male rats; rat Brain)?
Answer: 15,783 DPM/Total Organ

Question: And the “Orally administered 3H-Cholesterol” value (Holtzman male rats; rat Chyme)?
Answer: 218,742 DPM/Total Organ

Question: And the “Orally administered 3H-Cholesterol” value (Holtzman male rats; rat Feces)?
Answer: 294,644 DPM/Total Organ

Question: What about the “Orally administered 3H-Cholesterol” value (Holtzman male rats; rat Heart) of the same substance?
Answer: 20,060 DPM/Total Organ

Question: And the “Orally administered 3H-Cholesterol” value (Holtzman male rats; rat Kidney)?
Answer: 565 DPM/Total Organ

Question: And the “Orally administered 3H-Cholesterol” value (Holtzman male rats; rat Large Intestine)?
Answer: 59,665 DPM/Total Organ

Question: What about the “Orally administered 3H-Cholesterol” value (Holtzman male rats; rat Liver) of the same substance?
Answer: 27,695 DPM/Total Organ

Question: And the “Orally administered 3H-Cholesterol” value (Holtzman male rats; rat Lung)?
Answer: 17,106 DPM/Total Organ

Question: What about the “Orally administered 3H-Cholesterol” value (Holtzman male rats; rat Small Intestine) of the same substance?
Answer: 16,514 DPM/Total Organ

Question: What about the “Orally administered 3H-Cholesterol” value (Holtzman male rats; rat Spleen) of the same substance?
Answer: 13,241 DPM/Total Organ

Question: What about the “Orally administered 3H-Cholesterol” value (Holtzman male rats; rat Stomach) of the same substance?
Answer: 33,901 DPM/Total Organ

Question: What about the “3H-cholesterol reduced (dpm/organ vs control)” value (Holtzman male rats; rat brain) of the same substance?
Answer: 46%

Question: What about the “higher content of cholesterol” value (Holtzman male rats; rat chyme) of the same substance?
Answer: 113%

Question: And the “3H-cholesterol reduced (dpm/organ vs control)” value (Holtzman male rats; rat heart)?
Answer: 18%

Question: What about the “3H-cholesterol reduced (dpm/organ vs control)” value (Holtzman male rats; rat kidney) of the same substance?
Answer: 91%

Question: And the “higher content of cholesterol” value (Holtzman male rats; rat large intestine)?
Answer: 27%

Question: What about the “3H-cholesterol reduced (dpm/organ vs control)” value (Holtzman male rats; rat liver) of the same substance?
Answer: 42%

Question: What about the “higher content of cholesterol” value (Holtzman male rats; rat small intestine) of the same substance?
Answer: 81%

Question: What about the “higher content of cholesterol” value (Holtzman male rats; rat stomach) of the same substance?
Answer: 198%

Question: What about the “higher content of cholesterol” value (Holtzman male rats; rat urine) of the same substance?
Answer: 336%

Question: What about the “ribosomal ribonucleic acid polymerase activity” value [1] of the same substance?
Answer: not affected

Question: What about the “Ribosmoal ribonucleic acid polymerase activity” value [1, 3] of the same substance?
Answer: 96 ± 11 % Control

Question: What about the “Phosphoribosyl pyrophosphate amidotransferase activity” value [2, 3] of the same substance?
Answer: 41 ± 3 % Control

Question: What about the “Phosphoribosyl pyrophosphate amido transferase activity reduced” value ([2]; drug administration for 2 days) of the same substance?
Answer: 59%
